Source: US11352352B2, “Aminopyrimidine compound, preparation method therefor and use thereof” (BEIJING ADAMADLE BIOTECHNOLOGY LIMITED LIABILITY COMPANY, priority 2017, dated 2022)

Legend:
Assay in all cases: Cell proliferation inhibition experiment, CellTiter-Glo (CTG) method
Format in all cases: cell-based
[1] = tested on: PC-9; conditions: Homo sapiens, PC-9, 72 h, PC-9 cells, 3 days
Summary of the method: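 Cells in log-phase growth (viability above 90% by trypan blue) were seeded at 90 μL per well in black-walled, clear-bottom 96-well plates and incubated overnight at 37° C., 5% CO2. A T0 plate was read the next day. Test compounds were added at nine concentrations in triplicate with a solvent control. Viability was measured by CellTiter-Glo luminescence on EnVision, and IC50 came from non-linear S-curve fitting in GraphPad Prism 5.0.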

[2] = tested on: NCI-H1975; conditions: for IC50: Homo sapiens, NCI-H1975, 72 h, NCI-H1975 cells, CTG, 3 days; for A-431/NCI-H1975 Selectivity: ratio of A-431 IC50 to NCI-H1975 IC50
Summary of the method: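 NCI-H1975 cells with viability above 90% by trypan blue were seeded at 90 μL per well in black 96-well plates and incubated overnight at 37° C., 5% CO2. Compounds were added at nine concentrations in triplicate, and viability was measured with CellTiter-Glo luminescence on EnVision. IC50 came from non-linear S-curve fitting in GraphPad Prism 5.0.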

[3] = tested on: A-431; conditions: Homo sapiens, A-431, 72 h, A-431 cells, 3 days
Summary of the method: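 Cells seeded overnight at 37 °C, 5% CO2, then treated with nine 3-fold dilutions in triplicate, top 30 μM for A-431 and 1.111 μM for NCI-H1975 and PC-9; solvent control. After 3 days, viability read by CellTiter-Glo luminescence; IC50 from non-linear sigmoidal fit of survival rate.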

| Structure (SMILES) | IC50 [1] | IC50 [2] | A-431/NCI-H1975 Selectivity [2] | IC50 [3] |
| --- | --- | --- | --- | --- |
| C=CC(=O)Nc1cc(Nc2nccc(-c3ccc4c(cnn4C)c3)n2)c(OC(F)F)cc1N(C)CCN(C)CC [compound 259] | 19.9 nM | 14.9 nM | 102.6 | 1530 nM |
| C=CC(=O)Nc1cc(Nc2nccc(-c3ccc4c(cnn4C)c3)n2)c(OC(F)F)cc1N(C)CCN(C)C [compound 260] | 20.1 nM | 12.8 nM | 103.5 | 1320 nM |
| C=CC(=O)Nc1c(N(C)CCN(C)C)cc(OC)c(Nc2nccc(-c3ccc4c(cnn4C)c3)n2)c1F [compound 261] | 40.8 nM | 37 nM | 56.8 | 2100 nM |
| C=CC(=O)Nc1cc(Nc2nccc(-c3ccc4c(cnn4C)c3)n2)c(OC)cc1N1CCC(N(CC)CC)CC1 [compound 262] | 52.7 nM | 124 nM | 24.1 | 2980 nM |
| C=CC(=O)Nc1cc(Nc2cc(-c3ccc4c(cnn4C)c3)ncn2)c(OC)cc1N(C)CCNC(C)C [compound 263] | 18.5 nM | 9.1 nM | 131.9 | 1200 nM |
| C=CC(=O)Nc1cc(Nc2cc(-c3ccc4c(cnn4C)c3)ncn2)c(OC)cc1N1C[C@@H](C)N[C@@H](C)C1 [compound 264] | 22.1 nM | 5.5 nM | – | 924 nM |
| C=CC(=O)Nc1cc(Nc2cc(-c3ccc4c(cnn4C)c3)ncn2)c(OCC)cc1N1C[C@@H](C)N[C@@H](C)C1 [compound 265] | 34.7 nM | 20.6 nM | 78.9 | 1620 nM |
| C=CC(=O)Nc1cc(Nc2cc(-c3ccc4c(cnn4C)c3)ncn2)c(OC(F)F)cc1N1C[C@@H](C)N[C@@H](C)C1 [compound 266] | 24.8 nM | 10.1 nM | 92.9 | 938 nM |
| C=CC(=O)Nc1cc(Nc2cc(-c3ccc4c(cnn4C)c3)ncn2)c(OC)cc1N1CCN(C(C)(C)CO)CC1 [compound 268] | 15.6 nM | 27.1 nM | 62.7 | 1700 nM |
| C=CC(=O)Nc1cc(Nc2cc(-c3ccc4c(cnn4C)c3)ncn2)c(OC)cc1N(C)CCO [compound 269] | 16.3 nM | 21.6 nM | 72.9 | 1570 nM |
| C=CC(=O)Nc1cc(Nc2cc(-c3ccc4c(cnn4C)c3)ncn2)c(OC)cc1N1CCC(CCO)CC1 [compound 270] | 54.6 nM | 44.4 nM | 54.1 | 2400 nM |
| C=CC(=O)Nc1cc(Nc2cc(-c3ccc4c(cnn4C)c3)ncn2)c(OCC)cc1N(C)CCNC(C)C [compound 271] | 77.7 nM | 25.2 nM | 94.9 | 2390 nM |
| C=CC(=O)Nc1cc(Nc2cc(-c3ccc4c(cnn4C)c3)ncn2)c(OC(F)F)cc1N(C)CCNC(C)C [compound 272] | 13.9 nM | 5.6 nM | 176.3 | 987 nM |
| C=CC(=O)Nc1cc(Nc2cc(-c3ccc4c(cnn4C)c3)ncn2)c(OC(F)F)cc1N1CCN(CCO)CC1 [compound 273] | 79.8 nM | 53.3 nM | 50.2 | 2680 nM |
| C=CC(=O)Nc1cc(Nc2cc(-c3ccc4cnn(C)c4c3)ncn2)c(OC)cc1N1CCN(CCO)CC1 [compound 274] | 56.7 nM | 47 nM | 43.4 | 2040 nM |
| C=CC(=O)Nc1cc(Nc2cc(-c3ccc4cnn(C)c4c3)ncn2)c(OC(F)F)cc1N1CCN(CCO)CC1 [compound 275] | 43.2 nM | 136 nM | 24.3 | 3300 nM |

| Structure (SMILES) | IC50 [1] | IC50 [2] | A-431/NCI-H1975 Selectivity [2] | IC50 [3] |
| --- | --- | --- | --- | --- |
| C=CC(=O)Nc1cc(Nc2cc(-c3ccc4cnn(C)c4c3)ncn2)c(OC)cc1N1C[C@@H](C)N[C@@H](C)C1 [compound 276] | 13 nM | 32.4 nM | 65.1 | 2110 nM |
| C=CC(=O)Nc1cc(Nc2cc(-c3ccc4cnn(C)c4c3)ncn2)c(OC(F)F)cc1N1C[C@@H](C)N[C@@H](C)C1 [compound 277] | 21.9 nM | 52.9 nM | 37.9 | 2010 nM |
| C=CC(=O)Nc1cc(Nc2nccc(-c3ccc4c(cnn4C)c3)n2)c(OC)cc1N1CCN(CCO)CC1 [compound 278] | 40.9 nM | 117 nM | 21.2 | 2480 nM |
| C=CC(=O)Nc1cc(Nc2nccc(-c3ccc4c(cnn4C)c3)n2)c(OC)cc1N(C)CCO [compound 279] | 21.4 nM | 25.7 nM | 112.8 | 2900 nM |
| C=CC(=O)Nc1cc(Nc2nccc(-c3ccc4c(cnn4C)c3)n2)c(OC)cc1N1C[C@@H](C)N[C@@H](C)C1 [compound 280] | 87.4 nM | 99.4 nM | 32.4 | 3220 nM |
| C=CC(=O)Nc1cc(Nc2nccc(-c3ccc4c(cnn4C)c3)n2)c(OC)cc1N(C)CCNC(C)C [compound 281] | 67.9 nM | 72 nM | 46.2 | 3330 nM |
| C=CC(=O)Nc1cc(Nc2cc(-c3ccc4c(cnn4C)c3)ncn2)c(CC)cc1N1CCN(C)CC1 [compound 282] | 32.7 nM | 22.7 nM | 60.4 | 1370 nM |
| C=CC(=O)Nc1cc(Nc2cc(-c3ccc4c(cnn4C)c3)ncn2)c(CC)cc1N1CCC(N2CCOCC2)CC1 [compound 283] | 46.9 nM | 37.3 nM | 40.8 | 1520 nM |
| C=CC(=O)Nc1cc(Nc2cc(-c3ccc4c(cnn4C)c3)ncn2)c(OC)cc1N1CCC(N(C)C)C1 (stereo not shown) [compound 284] | 13.4 nM | 26.3 nM | 25.5 | 670 nM |
| C=CC(=O)Nc1cc(Nc2cc(-c3ccc4nc(C)sc4c3)ncn2)c(OC)cc1OCCN(C)C [compound 285] | 23.1 nM | 40.6 nM | 15.6 | 633 nM |
| C=CC(=O)Nc1cc(Nc2cc(-c3ccc4c(cnn4C)c3)ncn2)c(OC)cc1C(=O)N(C)CCN(C)C [compound 286] | 30.9 nM | 40.1 nM | 20.0 | 804 nM |
| C=CC(=O)Nc1cc(Nc2cc(-c3ccc4c(cnn4C)c3)ncn2)c(OC(F)F)cc1N(C)CCN(C)C [compound 287] | 9.2 nM | 4 nM | 152.9 | 612 nM |
| C=CC(=O)Nc1cc(Nc2cc(-c3ccc4c(cnn4C)c3)ncn2)c(OC)cc1N(C)C(=O)CN(C)C [compound 288] | 76.7 nM | 98.2 nM | 19.6 | 1920 nM |
| C=CC(=O)Nc1cc(Nc2cc(-c3ccc4c(cnn4C)c3)ncn2)c(OCC)cc1N(C)CCN(C)C [compound 289] | 24.1 nM | 12.2 nM | 85.1 | 1040 nM |
| C=CC(=O)Nc1cc(Nc2nccc(-c3ccc4c(cnn4C)c3)n2)c(OC)cc1C(=O)N(C)CCN(C)C [compound 290] | 36.5 nM | 30.8 nM | 52.9 | 1630 nM |
| C=CC(=O)Nc1cc(Nc2cc(-c3ccc4c(cnn4C)c3)ncn2)c(OC2CC2)cc1N(C)CCN(C)C [compound 291] | 54.3 nM | 89.5 nM | 30.6 | 2730 nM |
